{
  "source": "patent US20250275968A1",
  "about": "“INHIBITORS OF TAU PROTEINS” (DEUTSCHES ZENTRUM FÜR NEURODEGENERATIVE ERKRANKUNGEN E.V., priority 2022, published 2025)",
  "key": {"tau(244-372, 13818 Da)": {"molecular_target": "T1, tau(244-372, 13818 Da) (Homo sapiens, UniProt P10636)", "T1 construct": "comprising residues 244-372 of 2N4R Tau", "T1 sequence (P10636 561-689)": "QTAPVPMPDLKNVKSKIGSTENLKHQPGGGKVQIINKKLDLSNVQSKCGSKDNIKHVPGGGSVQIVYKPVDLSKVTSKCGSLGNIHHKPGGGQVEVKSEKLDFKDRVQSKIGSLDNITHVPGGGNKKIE", "test": "ESI-MS covalent modification of tau", "type": "binding", "method": "This analysis was performed using the 4R Tau construct (K18 construct, 13818 Da) comprising residues 244-372 of 2N4R Tau. Compounds (330 μM) were incubated with 4R Tau (65 μM) for 16 h at 37° C. in 10 mM ammonium bicarbonate at pH 7.0. The compound/4R Tau mixtures were injected into an LC system (ACQUITY) coupled to a single quadrupole mass detection system (SQ Detector 2, Waters) with diode-array detectors (DAD). The DAD spectrum covers wavelengths of 210-400 nm. Components of the compound-4R Tau mixture were separated using a BioResolve RP mAb column (Waters) with a gradient of 5-95% buffer B (buffer A is 0.1% TFA in water and buffer B is 0.1% TFA in acetonitrile). Covalent modification of 4R Tau corresponded to mass additions of 500 Da (Osimertinib) and 486 Da (AZ7550 or AZ5104)."}, "2N4R tau aggregates": {"molecular_target": "T2, 2N4R tau aggregates (Homo sapiens, UniProt P10636)", "T2 construct": "Full-length 2N4R tau was incubated with Osimertinib mesylate", "T2 sequence (P10636 1-441 isoform P10636-8)": "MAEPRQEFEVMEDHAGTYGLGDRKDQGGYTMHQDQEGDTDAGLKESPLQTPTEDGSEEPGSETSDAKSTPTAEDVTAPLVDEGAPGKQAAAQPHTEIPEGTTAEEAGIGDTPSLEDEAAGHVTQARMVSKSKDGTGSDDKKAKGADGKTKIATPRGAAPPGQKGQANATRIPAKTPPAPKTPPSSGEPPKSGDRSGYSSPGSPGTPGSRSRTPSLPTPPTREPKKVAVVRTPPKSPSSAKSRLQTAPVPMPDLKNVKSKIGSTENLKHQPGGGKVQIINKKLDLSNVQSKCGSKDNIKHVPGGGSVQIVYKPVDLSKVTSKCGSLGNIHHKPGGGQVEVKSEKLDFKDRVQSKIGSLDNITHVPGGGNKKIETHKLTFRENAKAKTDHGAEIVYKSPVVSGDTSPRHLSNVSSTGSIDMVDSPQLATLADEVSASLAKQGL", "test": "Dissolution of preformed 2N4R tau fibrils (ThT fluorescence, TEM)", "type": "biochemical", "settings": "compounds added to tau fibrils after about 40 h; tau monomer:Compound 1:3 and 1:10", "method": "(A) ThT fluorescence curves monitoring tau aggregation. tau fibrillization reached a saturation point within about 40 h, then compounds or buffer (Reference) were added to tau fibrils (tau monomer:Compound mole ratios 1:3 and 1:10). The experiment was performed in duplicate. […] Statistically significant differences were determined by one-way ANOVA with Dunnett's multiple comparison test. Significant differences corresponding to p≤0.0002(***) and p≤0.0001(****) are indicated. […] Scale bars are 500 nm. […] The dotted line corresponds to one standard deviation above the Reference value.\nTo prepare the Tau fibril seeds by de novo aggregation, 2N4R Tau at a monomer concentration of 25 μM was diluted in aggregation buffer. The working concentration of TCEP in the aggregation mixture was <25 μM after dilution of the stock. To this mixture, Thioflavin T (ThT) was added to a final concentration of 50 μM. A total volume of 100 μL of the Tau-ThT mixture was incubated in a well of a 96-well microplate (Greiner Bio-one), in the presence of two polytetrafluoroethylene beads. The microplate was subjected to a program implemented in a Tecan Spark plate reader that involved incubating at 37° C., with intervals of double orbital shaking and ThT fluorescence emission measurement. The excitation wavelength for ThT was set as 430 nm and the emission wavelength was 485 nm. Details of this plate reader program were published previously (Reference: Chakraborty, P. et al. Co-factor-free aggregation of tau into seeding-competent RNA-sequestering amyloid fibrils. Nat. Commun. 12, 4231 (2021)). […] The fibril-containing mixture collected from the microplate served as a seeding mixture for the subsequent aggregation assays.\nFibril samples were negative stained using glow discharged 400 mesh carbon-coated copper grids. After staining using a 1% uranyl acetate solution, images were acquired on a Talos L120C transmission electron microscope (Thermo Fisher, Eindhoven, The Netherlands)."}, "15N-labeled 2N4R tau": {"molecular_target": "T3, 15N-labeled 2N4R tau (Homo sapiens, UniProt P10636)", "T3 construct": "Full-length 2N4R tau was incubated with Osimertinib mesylate", "T3 sequence (P10636 1-441 isoform P10636-8)": "as above", "test": "SOFAST-HMQC NMR binding to monomeric tau", "settings": "for binding to tau (NMR spectroscopy): 18 μM tau, 50 mM sodium phosphate pH 6.8, 16 h at 37° C., spectra at 5° C.", "from_the_text": "(A) Overlaid spectra of 2N4R tau with (black) and without (grey) a 100-fold molar excess of Osimertinib mesylate.\nTo obtain residue-specific information about the interaction between Tau and the compounds, ^1H-^15N correlation spectra of 2N4R Tau were monitored over the course of a titration with increasing amounts of compound. The ^1H-^15N SOFAST-HMQC (Reference: Schanda, P., Kupce, E. & Brutscher, B. SOFAST-HMQC experiments for recording two-dimensional heteronuclear correlation spectra of proteins within a few seconds. J. Biomol. NMR 33, 199-211 (2005)) spectra of [U-^15N]-Tau were acquired at 5° C. on a Bruker 800 MHz spectrometer equipped with a triple-resonance cryoprobe. Tau samples (18-25 μM) were prepared in NMR buffer containing 10% (v/v) D2O, and with compound concentrations that corresponded to Tau:compound mole ratios of 1:10 and 1:100. All NMR samples were incubated overnight (˜16 h) at 37° C. prior to spectral acquisition. Tau amide assignments were taken from a previous study (Reference: Mukrasch, M. et al. Structural polymorphism of 441-residue tau at single residue resolution. PLoS Biol. 7, e34 (2009)). However, because previous assignments were obtained using a Tau sample prepared in the presence of reducing agents, some amide resonances belonging to the repeat region of Tau (close to C291 and C322) were not unambiguously transferred to the SOFAST-HMQC spectra acquired under oxidizing conditions. Therefore, to obtain nearly complete backbone assignments in the repeat region, 3D HNCA, 3D HNCOCA, and 3D CBCACONH spectra were recorded for a [U-^13C,^15N]-4R Tau (K18 construct) sample prepared under the same buffer condition. The weighted, normalized chemical shift perturbations (CSP) were calculated as CSP=√[0.5 [(Δδ H)^2+(Δδ N)^2/25]. NMR signal intensity ratios, I/I0 (where I is the peak intensity of Tau amide backbone resonances in the presence of the compounds, and I0 is the peak intensity in the absence of the compounds), were calculated for each titration point."}, "[1]": {"tested_on": "tau-induced degeneration of Drosophila eyes (GMR-Gal4/WT tau)", "test": "Drosophila neurodegeneration model (eye degeneration)", "type": "in vivo", "method": "Stock solutions of individual compounds were prepared by dissolving 10 mg of the compound in 100 μl of 100% DMSO. Osimertinib, Osimertinib mesylate and AZ7550 mesylate were orally fed to the flies by mixing them with food. The final concentration of each compound, which was used for treating the Drosophila, was derived on the basis of recommended concentrations for human use (reference concentration) based on body weight.\nWe have used three concentrations for each compound. One was equal to the reference concentration, and two were higher than the reference concentration. Final concentrations of different compounds mixed with fly food are: Osimertinib mesylate, […]; Osimertinib, […]; AZ 7550 mesylate, 10 µM and 20 µM. After hatching, first instar larvae were transferred onto the food containing one of the compounds. Food mixed with drug at required concentration was replaced with fresh food every 48 h.\nLight microscopy was performed after mounting the fly heads on the glass slide using a double-sided adhesive tape. Full-eye images were captured with the help of an Infinity Analyze camera attached to an Olympus SZX7 microscope with a halogen light source. Total eye surface area and degenerated eye surface area were marked and calculated with Infinity Analyze software (Lumenera corporation). Percentage of degenerated area was calculated and plotted using GraphPad Prism 8.\nAfter the eclosion, treated and control flies (2-3 days old) were fixed in 1% formaldehyde for two hours, followed by serial dehydration steps of 12 hrs each in 25%, 50%, 75% and 100% ethanol were carried out. Flies were stored in 100% ethanol and dried with CPD before mounting on the stab for imaging. Eye Images were captured at 150× and analyzed using Infinity Analyze software."}},
  "note": "Counter-ions that a name gives are not always drawn.",
  "data": [
    {"smiles": "C=CC(=O)Nc1cc(Nc2nccc(-c3c[nH]c4ccccc34)n2)c(OC)cc1N(C)CCN(C)C", "note": "[Compound 3, N-[2-[[2-(dimethylamino)ethyl]methylamino]-5-[[4-(1H-indol-3-yl)-2-pyrimidinyl]amino]-4-methoxyphenyl]-2-Propenamide]", "values": [
      {"measurement": "covalent modification of cysteines in tau (ESI-MS)", "setting": "tau(244-372, 13818 Da)", "result": "confirms covalent modification of cysteines"},
      {"measurement": "dissolution of 2N4R tau aggregates (reduction of ThT fluorescence intensity)", "setting": "2N4R tau aggregates", "result": "partially dissolve"},
      {"measurement": "binding to tau (NMR spectroscopy)", "setting": "15N-labeled 2N4R tau", "result": "reveals binding"},
      {"measurement": "NMR signal intensity ratio I/I0", "setting": "15N-labeled 2N4R tau; 16 h incubation at 37° C.", "result": "above 1"}
    ]},
    {"smiles": "C=CC(=O)Nc1cc(Nc2nccc(-c3cn(C)c4ccccc34)n2)c(OC)cc1N(C)CCN(C)C", "note": "[Osimertinib mesylate, N-[2-(2-Dimethylaminoethylmethylamino)-4-methoxy-5-[[4-(1-methylindol-3-yl)pyrimidin-2-yl]amino]phenyl]prop-2-enamide Mesylate Salt]", "values": [
      {"measurement": "tau-induced degeneration of Drosophila eyes (percent degeneration, light microscopy)", "setting": "[1]; GMR-Gal4/WT tau flies treated in food from larvae stage to adult stage", "result": "rescue tau-induced degeneration of Drosophila eyes"},
      {"measurement": "binding to tau (NMR spectroscopy)", "setting": "15N-labeled 2N4R tau", "result": "reveals binding"}
    ]},
    {"smiles": "C=CC(=O)Nc1cc(Nc2nccc(-c3cn(C)c4ccccc34)n2)c(OC)cc1N(C)CCN(C)C", "note": "[Osimertinib, N-[2-(2-Dimethylaminoethylmethylamino)-4-methoxy-5-[[4-(1-methylindol-3-yl)pyrimidin-2-yl]amino]phenyl]prop-2-enamide]", "values": [
      {"measurement": "signs of eye degeneration in SEM micrographs", "setting": "[1]; compared to control with GMR-Gal4/WT tau", "result": "visibly reduced signs of degeneration"},
      {"measurement": "covalent modification of cysteines in tau (ESI-MS)", "setting": "tau(244-372, 13818 Da)", "result": "confirms covalent modification of cysteines"},
      {"measurement": "dissolution of 2N4R tau aggregates (reduction of ThT fluorescence intensity)", "setting": "2N4R tau aggregates", "result": "partially dissolve"}
    ]}
  ]
}
